Measurements from US7687651B2, “Method for the preparation of trans-or cis-diammoniumdichlorodihydroxoplatinum(IV) and the use thereof in the production of pharmaceutical active substances” (priority 2003, dated 2010).
“And” between values parts separate entries of the source, which are not always exact repeats. Equal entries are not always repeated.

Tests used:
Type in all cases: cell-based, human
[1] = system: U-87-MG Astrocytoma; test: Cytotoxic activity of trans-oxoplatin, U-87-MG
Protocol: (§1) trans-Oxoplatin was tested on a panel of cell lines, using double steps and an initial concentration of 40 μg/ml. As the IC50 values were not reached in most cases, cell survival at the highest concentration is indicated.

[2] = system: ASTRO Astrocytoma; test: Cytotoxic activity of trans-oxoplatin, ASTRO
Protocol: as §1

[3] = system: SW620 Colon carcinoma; test: Cytotoxic activity of trans-oxoplatin, SW620; details: SW 620 colon carcinoma cell line
Protocol: as §1

[4] = system: MDA-MB-231 Breast cancer; test: Cytotoxic activity of trans-oxoplatin, MDA-MB-231; details: several values given
Protocol: as §1

[5] = system: G-292 Osteosarcoma; test: Cytotoxic activity of trans-oxoplatin, G-292; details: G-292 osteosarcoma cell line
Protocol: as §1

[6] = system: Panc1 Pancreatic cancer; test: Cytotoxic activity of trans-oxoplatin, PANC1
Protocol: as §1

[7] = system: CRO1A Carcinoid; test: Cytotoxic activity of trans-oxoplatin, CRO1A; details: several values given
Protocol: as §1

[8] = system: MiaPaCa2 Pancreatic cancer; test: Cytotoxic activity of trans-oxoplatin, MIAPaCa2; details: several values given
Protocol: as §1

[9] = system: Fib3 Fibroblasts; test: Cytotoxic activity of trans-oxoplatin, Fib3
Protocol: as §1

[10] = system: K562 Leukemia; test: Cytotoxic activity of trans-oxoplatin, K562
Protocol: as §1

[11] = system: WI-38 Embryonic lung fibroblasts; test: Cytotoxic activity of trans-oxoplatin, WI-38
Protocol: as §1

[12] = system: COLO 205 Colon carcinoma; test: Cytotoxic activity of trans-oxoplatin, COLO 205
Protocol: as §1

[13] = system: HCT-15 Colon carcinoma; test: Cytotoxic activity of trans-oxoplatin, HCT-15
Protocol: as §1

[14] = system: T-47D breast cancer; test: Cytotoxic activity of trans-oxoplatin, T-47D
Protocol: as §1

[15] = system: HL-60 Leukemia; test: Cytotoxic activity of trans-oxoplatin, HL-60
Protocol: as §1

[16] = system: HOS Osteosarcoma; test: Cytotoxic activity of trans-oxoplatin, HOS
Protocol: as §1

[17] = system: ACHN Renal carcinoma; test: Cytotoxic activity of trans-oxoplatin, ACHN
Protocol: as §1

[18] = system: BxPC3 Pancreatic carcinoma; test: Cytotoxic activity of trans-oxoplatin, BxPC3
Protocol: as §1

[19] = system: HOS Osteosarcoma; test: Growth inhibition test on HOS cells; details: Table 1
Protocol: (§2) Growth inhibition tests on various human cell lines show the different activities of cisplatin, cis-oxoplatin and oxaliplatin. […] The following Table illustrates the results produced with cisplatin, oxoplatin, carboplatin and oxaliplatin (the values specified are IC50 values in μg/ml, i.e., the concentration where 50% of the cells survive, nd=not determined; res=resistant=non-sensitive or IC50 value cannot be determined at a concentration of up to 40 μg/ml; IC=inhibition concentration).

[20] = system: SaOS Osteosarcoma; test: Growth inhibition test on SaOS cells; details: Table 1
Protocol: as §2

[21] = system: PC3 Prostate; test: Growth inhibition test on PC3 cells; details: for % Survival: PC3 cells; for IC50: PC3 Prostate
Protocol: as §2

[22] = system: M607 Melanoma; test: Growth inhibition test on M607 cells; details: Table 1
Protocol: as §2

[23] = system: M518 Melanoma; test: Growth inhibition test on M518 cells; details: Table 1
Protocol: as §2

[24] = system: Me128 Melanoma; test: Growth inhibition test on Me128 cells; details: Table 1
Protocol: as §2

[25] = system: JVSO Melanoma; test: Growth inhibition test on JVSO cells; details: Table 1
Protocol: as §2

[26] = system: Panc1 Pancreatic cancer; test: Growth inhibition test on Panc1 cells; details: Table 1
Protocol: as §2

[27] = system: BxPC3 Pancreatic cancer; test: Growth inhibition test on BxPC3 cells
Protocol: (§3) The effect of cis-oxoplatin Ca and cis-oxoplatin was compared on 10 cell lines (Table 4).
(§4) (IC50 values specified in μg/ml; the test was performed as a formazan test).

[28] = system: MiaPaCa2 Pancreatic cancer; test: Growth inhibition test on MiaPaCa2 cells; details: Table 1
Protocol: as §2

[29] = system: HCT8 Colon carcinoma; test: Growth inhibition test on HCT8 cells; details: Table 1
Protocol: as §2

[30] = system: HT29 Colon carcinoma; test: Growth inhibition test on HT29 cells
Protocol: as §3, §4

[31] = system: HCT-15 Colon carcinoma; test: Growth inhibition test on HCT-15 cells; details: Table 1
Protocol: as §2

[32] = system: A498 Renal cells; test: Growth inhibition test on A498 cells; details: Table 1
Protocol: as §2

[33] = system: C320DM Colon carcinoma; test: Growth inhibition test on C320DM cells; details: Table 1
Protocol: as §2

[34] = system: Colo205 Colon carcinoma; test: Growth inhibition test on Colo205 cells
Protocol: as §3, §4

[35] = system: CC1227 Colon carcinoma; test: Growth inhibition test on CC1227 cells; details: Table 1
Protocol: as §2

[36] = system: MCF-7 Breast cancer; test: Growth inhibition test on MCF-7 cells; details: Table 1
Protocol: as §2

[37] = system: T47D Breast cancer; test: Growth inhibition test on T47D cells
Protocol: as §3, §4

[38] = system: SK-OV3 Ovarian cancer; test: Growth inhibition test on SK-OV3 cells; details: Table 2
Protocol: as §2

[39] = system: U 373 MG Astrocytoma; test: Growth inhibition test on U 373 MG cells; details: Table 2
Protocol: as §2

[40] = system: SK-OV4 Ovarian cancer; test: Growth inhibition test on SK-OV4 cells; details: Table 2; SK-OV4 Ovarian cancer
Protocol: as §2

[41] = system: CaCo-2 Colon; test: Growth inhibition test on CaCo-2 cells; details: CaCo-2 Colon
Protocol: as §3, §4

[42] = system: CRO2B Carcinoid; test: Growth inhibition test on CRO2B cells; details: CRO2B Carcinoid
Protocol: as §3, §4

[43] = system: Du145 Prostate; test: Growth inhibition test on Du145 cells; details: Du145 Prostate
Protocol: as §3, §4

[44] = system: SW480 Colon; test: Growth inhibition test on SW480 cells; details: SW480 Colon
Protocol: as §3, §4

[45] = system: SIM Sarcoma; test: Growth inhibition test on SIM cells
Protocol: as §2
(§5) What is seen primarily in children are leukemias, neuroblastomas and Ewing's sarcoma/peripheral neuroectodermal tumors (group of the Ewing family of tumors=EFT). The investigated tumor cell lines include three EFTs (EW-7, SIM and KAL), as well as two neuroblastoma cell lines (NB: LAN1 and LAN5; Los Angeles neuroblastoma=LAN) (see Table 3).

[46] = system: EW-7 (EFT); test: Effect on cell lines of typical tumors in children, EW-7; details: Table 3
From the text: as §5

[47] = system: LAN1 (NB); test: Effect on cell lines of typical tumors in children, LAN1; details: Table 3
From the text: as §5

[48] = system: LAN5 (NB); test: Effect on cell lines of typical tumors in children, LAN5; details: Table 3
From the text: as §5

[49] = system: MDA-MB-435 Breast; test: Formazan test on MDA-MB-435 cells; details: Table 4
Protocol: as §3, §4

[50] = system: BT20 Breast; test: Formazan test on BT20 cells; details: Table 4
Protocol: as §3, §4

[51] = system: HT29, SW480, SK-OV4, PC3, SIM, CaCO-2, DU145 and CRO2B cells; test: Growth inhibition, IC50 over eight cell lines of Table 2; details: CaCO-2, DU145, CRO2B
Protocol: as §2
The activities differ according to the cell line.

[52] = system: 10 cell lines (Table 4); test: Formazan test, IC50 mean value for all cell lines of Table 4; details: mean over the 10 cell lines of Table 4
Protocol: as §3, §4

[NH2][Pt]([NH2])([OH])([OH])([Cl])[Cl] [TRAXO, trans-Oxoplatin]
% Survival with 40 μg/ml TRAXO [1]: 100%
% Survival with TRAXO (20 μg/ml indicated) ([2]; 20 μg/ml): 82%
% Survival with 40 μg/ml TRAXO ([2]; 40 μg/ml): 71%
activity against the cell line [3]: considerable activity
% Survival with 40 μg/ml TRAXO [4]: 70% and 103% and 106%
activity against the cell line [5]: considerable activity
% Survival with 40 μg/ml TRAXO [6]: 100%
% Survival with 40 μg/ml TRAXO [7]: 87% and 104% and 70%
% Survival with 40 μg/ml TRAXO [8]: 92% and 83%
% Survival with 40 μg/ml TRAXO [9]: 91%
% Survival with 40 μg/ml TRAXO [10]: 97%
% Survival with 40 μg/ml TRAXO ([11]; WI-38, 40 μg/ml): 21%
activity against the cell line ([11]; WI-38 embryonic pulmonary fibroblast cell line): considerable activity
% Survival with 40 μg/ml TRAXO [12]: 109%
% Survival with 40 μg/ml TRAXO [13]: 100%
sensitivity of the cell line [14]: non-sensitive
% Survival with 40 μg/ml TRAXO ([14]; 40 μg/ml): 101%
% Survival with 40 μg/ml TRAXO ([15]; HL-60, 40 μg/ml): 0.5%
activity against the cell line ([15]; HL-60 leukemia cell line): considerable activity
activity against the cell line ([16]; HOS osteosarcoma cell line): considerable activity
% Survival with 40 μg/ml TRAXO ([16]; HOS, 40 μg/ml): 4.3%
activity against the cell line ([17]; ACHN renal carcinoma cell line): considerable activity
% Survival with 40 μg/ml TRAXO ([17]; ACHN, 40 μg/ml): 48%
sensitivity of the cell line [18]: non-sensitive
% Survival with 40 μg/ml TRAXO ([18]; 40 μg/ml): 106%

N.N.[Cl-].[Cl-].[OH-].[OH-].[Pt+4] [cis-Oxoplatin, cis-diammoniumdichlorodihydroxoplatinum(IV)]
IC50 [19]: 2.5 µg/mL
IC50 [20]: 5 µg/mL
% Survival ([21]; Conc. 5 μg/ml): 105.2 ± 10.8%
% Survival ([21]; Conc. 10 μg/ml): 87.4 ± 11.8%
% Survival ([21]; Conc. 20 μg/ml): 56.7 ± 6.3%
% Survival ([21]; Conc. 40 μg/ml): 15.8 ± 2.7%
IC50 ([21]; Table 1): 7.5 µg/mL
IC50 ([21]; Table 2): 7.5 µg/mL
IC50 [22]: 5 µg/mL
IC50 [23]: res (res=resistant=non-sensitive or IC50 value cannot be determined at a concentration of up to 40 μg/ml)
IC50 [24]: 2.5 µg/mL
IC50 [25]: 10 µg/mL
IC50 [26]: 40 µg/mL
IC50 ([27]; Table 1, BxPC3 Pancreatic cancer): 2.5 µg/mL
IC50 ([27]; Table 2, BxPC3 Pancreatic carcinoma): 13 µg/mL
IC50 ([27]; Table 4, BxPC3 Pancreas, formazan test): 26.0 µg/mL
IC50 [28]: 5 µg/mL
IC50 [29]: 40 µg/mL
IC50 ([30]; Table 1, HT29 Colon carcinoma): 20 µg/mL
IC50 ([30]; Table 2, HT29 Colon): 13.5 µg/mL
IC50 ([30]; Table 4, HT29 Colon, formazan test): 13.5 µg/mL
IC50 [31]: 20 µg/mL
IC50 [32]: 20 µg/mL
IC50 [33]: 2.5 µg/mL
IC50 ([34]; Table 1, Colo205 Colon carcinoma): res (res=resistant=non-sensitive or IC50 value cannot be determined at a concentration of up to 40 μg/ml)
IC50 ([34]; Table 4, Colo205 Colon, formazan test): 29.0 µg/mL
IC50 [35]: 10 µg/mL
IC50 [36]: 5.5 µg/mL
IC50 ([37]; Table 1, T47D Breast cancer): 2.5 µg/mL
IC50 ([37]; Table 2, T47D Breast cancer): 3 µg/mL
IC50 ([37]; Table 4, T47D Breast, formazan test): 2.5 µg/mL
IC50 [38]: 15 µg/mL
IC50 [39]: 15 µg/mL
IC50 [40]: 16.2 µg/mL
IC50 ([41]; Table 2): 1.52 µg/mL
IC50 ([41]; Table 4, formazan test): 1.52 µg/mL
IC50 ([42]; Table 2): 3.0 µg/mL
IC50 ([42]; Table 4, formazan test): 3.0 µg/mL
IC50 ([43]; Table 2): 19.0 µg/mL
IC50 ([43]; Table 4, formazan test): 19.0 µg/mL
IC50 ([44]; Table 2): 8.2 µg/mL
IC50 ([44]; Table 4, formazan test): 8.2 µg/mL
IC50 ([45]; Table 2, SIM Sarcoma): 15.2 µg/mL
IC50 ([45]; Table 3, SIM (EFT)): 14 µg/mL
IC50 [46]: 1.25 µg/mL
IC50 [47]: 17 µg/mL
IC50 [48]: 3.5 µg/mL
IC50 [49]: 16.5 µg/mL
IC50 [50]: 3.75 µg/mL
IC50 values of these cells (mean ± spread) [51]: 10.5 ± 6.4 µg/mL
IC50 (±SEM) mean value for all cell lines [52]: 12.3 ± 3.2 µg/mL
